From patent publication US8293784B2, “α-amino acid derivatives for improving solubility” (Merck Patent GmbH, priority 2007, dated 2012)
Values after ≈ are worked out from the molar mass of the structure shown. Like-named read-outs stand apart in the source and are kept apart here.

How the values were obtained:
[1] = Solubility of PBSA in aqueous solubiliser solutions, dissolved fraction determined by HPLC; format: physicochemical; conditions: thermodynamic from solid, filtered
Description: Firstly, 4% aqueous solutions of ectoine, creatinine and pyrrolidonecarboxylic acid are prepared. The active compound PBSA is subsequently dispersed in the solution in excess. The pH of the suspension is adjusted to 4.6. Undissolved active compound is filtered off after stirring for 1 hour. The dissolved active-compound fraction is determined by high-performance liquid chromatography. The experiment without solubiliser serves as comparison. In the case of dissolution of PBSA in aqueous creatinine solution, the solubility is additionally determined at pH 5.7, i.e. in this case the pH is not restored to 4.6.

[2] = Visual assessment of the increase in solubility due to ectoine (clear vs cloudy solution); format: physicochemical; conditions: active compound incorporated at 1% (tiliroside) or 1.5% (5,7-dihydroxy-2-methylchromone)
Description: Firstly, 4% ectoine solutions are prepared in water and in a water/ethanol mixture (3:1). The active compound to be dissolved is subsequently incorporated into the two ectoine solutions in an amount of 1% and 1.5% respectively. The respective ectoine-free batches serve as comparison.

[3] = 4% of ectoine in ethanol/water 3:1
[4] = Ethanol/water 3:1, no ectoine (comparison)

| SMILES | solubility at 1 h ([1]; 4% aqueous creatinine solution, pH 4.6, aqueous with cosolvent or surfactant or cyclodextrin, pH of the dispersion set to 4.6, stirred 1 hour, read-out: Solubility of PBSA in water comprising 4% of creatinine) [mg/mL] | solubility at 1 h ([1]; 4% aqueous creatinine solution, pH 5.7, aqueous with cosolvent or surfactant or cyclodextrin, pH of the dispersion 5.7 (pH not restored to 4.6), stirred 1 hour, read-out: Solubility of PBSA in water comprising 4% of creatinine) [mg/mL] | solubility at 1 h ([1]; 4% aqueous ectoine solution, pH 4.6, aqueous with cosolvent or surfactant or cyclodextrin, pH of the dispersion set to 4.6, stirred 1 hour, read-out: Solubility of PBSA in water comprising 4% of ectoine) [mg/mL] | solubility at 1 h ([1]; 4% aqueous pyrrolidonecarboxylic acid solution, pH 4.6, aqueous with cosolvent or surfactant or cyclodextrin, pH of the dispersion set to 4.6, stirred 1 hour, read-out: Solubility of PBSA in water comprising 4% of pyrrolidonecarboxylic acid) [mg/mL] | solubility at 1 h ([1]; water without solubiliser, pH 4.6, aqueous buffer, no solubiliser, pH of the dispersion set to 4.6, stirred 1 hour, read-out: Solubility of PBSA in water) [mg/mL] | Appearance of solution (visual solubility assessment) [2, 3] | Appearance of solution (visual solubility assessment) [2, 4] |
| --- | --- | --- | --- | --- | --- | --- | --- |
| O=S(=O)(O)c1ccc2[nH]c(-c3ccccc3)nc2c1 [PBSA, 2-phenylbenzimidazole-5-sulfonic acid] | 0.94 (≈ 3430 µM) | 8.5 (≈ 31000 µM) | 0.6 (≈ 2190 µM) | 0.34 (≈ 1240 µM) | 0.34 (≈ 1240 µM) | – | – |
| O=C(/C=C/c1ccc(O)cc1)OC[C@H]1O[C@@H](Oc2c(-c3ccc(O)cc3)oc3cc(O)cc(O)c3c2=O)[C@H](O)[C@@H](O)[C@@H]1O [Tiliroside, tiliroside] | – | – | – | – | – | clear solution | cloudy solution |
| Cc1cc(=O)c2c(O)cc(O)cc2o1 [5,7-Dihydroxy-2-methyl-chromone, 5,7-dihydroxy-2-methylchromone] | – | – | – | – | – | clear solution | cloudy solution |
